One assay has as its system johnsongrass. As to the kind of experiment: Test F preemergence. Type of assay: in vivo, Sorghum halepense. As to conditions: 21 days, scale 0 to 100. An excerpt: (§1) Seeds of plant species selected from bermudagrass (Cynodon dactylon), surinam grass (Brachiaria decumbens), large (Lg) crabgrass (Digitaria sanguinalis), crabgrass, naked (naked crabgrass, Digitaria nuda), foxtail, green (green foxtail, Setaria viridis), johnsongrass (Sorghum halepense), kochia (Kochia scoparia), morningglory (pitted morningglory, Ipomoea lacunosa), nutsedge, purple (purple nutsedge, Cyperus rotundus), ragweed (common ragweed, Ambrosia elatior), mustard, black (black mustard, Brassica nigra), guineagrass (Panicum maximum), dallisgrass (Paspalum dilatatum), barnyardgrass (Echinochloa crus-galli), sandbur (southern sandbur, Cenchrus echinatus), sowthistle (common sowthistle, Sonchus oleraceous), Italian ryegrass (Lolium multiflorum), signalgrass (broadleaf signalgrass, Brachiaria platyphylla), dayflower (Virginia (VA) dayflower, Commelina virginica), bluegrass (annual bluegrass, Poa annua), quackgrass (Elytrigia repens), mallow (common mallow, Malva sylvestris), buckwheat, wild (wild buckwheat, Polygonum convolvulus), leafy spurge (Euphorbia esula), chickweed (common chickweed, Stellaria media), wild poinsettia (Euphorbia heterophylla), and pigweed (Amaranthus retroflexus) were planted into a blend of loam soil and sand and treated preemergence with test chemicals formulated in a non-phytotoxic solvent mixture which included a surfactant.
(§2) Treated plants and controls were maintained in a greenhouse for 21 days, after which time all species were compared to controls and visually evaluated. Plant response ratings, summarized in Table F, are based on a scale of 0 to 100 where 0 is no effect and 100 is complete control. A dash (-) response means no test result.

The subject of the next assay is dallisgrass. Put plainly: Test F preemergence. Type of assay: in vivo, Paspalum dilatatum. As to conditions: 21 days, scale 0 to 100.
From the text: as §1, §2

The test system of a further assay is sandbur. As to the kind of experiment: Test F preemergence. Type of assay: in vivo, Cenchrus echinatus. As to conditions: 21 days, scale 0 to 100.
From the text: as §1, §2

The test system of a further assay is field violet. As to the kind of experiment: Test D preemergence. Type of assay: in vivo, Viola arvensis. From the text:
(§3) Seeds of plant species selected from bluegrass (annual bluegrass, Poa annua), blackgrass (Alopecurus myosuroides), canarygrass (littleseed canarygrass, Phalaris minor), chickweed (common chickweed, Stellaria media), galium (catchweed bedstraw, Galium aparine), bromegrass, downy (downy bromegrass, Bromus tectorum), field poppy (Papaver rhoeas), field violet (Viola arvensis), green foxtail (Setaria viridis), deadnettle (henbit deadnettle, Lamium amplexicaule), Italian ryegrass (Lolium multiflorum), kochia (Kochia scoparia), lambsquarters (Chenopodium album), oilseed rape (Brassica napus), pigweed (Amaranthus retroflexus), chamomile (scentless chamomile, Matricaria inodora), Russian thistle (Salsola kali), speedwell (bird's-eye speedwell, Veronica persica), spring barley (Hordeum vulgare), spring wheat (Triticum aestivum), wild buckwheat (Polygonum convolvulus), wild mustard (Sinapis arvensis), wild oat (Avena fatua), wild radish (Raphanus raphanistrum), windgrass (Apera spica-venti), winter barley (Hordeum vulgare), and winter wheat (Triticum aestivum) were planted into a silt loam soil and treated preemergence with test chemicals formulated in a non-phytotoxic solvent mixture which included a surfactant.
(§4) At the same time, these species were planted in pots containing Redi-Earth® planting medium (Scotts Company, 14111 Scottslawn Road, Marysville, Ohio 43041) comprising spaghnum peat moss, vermiculite, wetting agent and starter nutrients and treated with postemergence applications of the test chemicals formulated in the same manner. Plants ranged in height from 2 to 18 cm (1- to 4-leaf stage). Treated plants and controls were maintained in a controlled growth environment for 7 to 21 days after which time all species were compared to controls and visually evaluated. Plant response ratings, summarized in Table D, are based on a scale of 0 to 100 where 0 is no effect and 100 is complete control. A dash (-) response means no test result.

The test system of the next assay is deadnettle. As to the kind of experiment: Test D preemergence. Type of assay: in vivo, Lamium amplexicaule.
From the text: as §3, §4

The subject of another assay is pigweed. As to the kind of experiment: Test D preemergence. Type of assay: in vivo, Amaranthus retroflexus.
From the text: as §3, §4

The test system of the next assay is field poppy. Put plainly: Test D postemergence. Type of assay: in vivo, Papaver rhoeas.
From the text: as §3, §4

A further assay relates to lambsquarters. Put plainly: Test D postemergence. Type of assay: in vivo, Chenopodium album.
From the text: as §3, §4

The mark [1] stands for this setting: 16 g ai/ha, scale 0 (no effect) to 100 (complete control).
Where [2] appears, read: 31 g ai/ha, scale 0 to 100 (0 no effect, 100 complete control).
Setting [3] is: 62 g ai/ha, scale 0 to 100 (0 no effect, 100 complete control).
Setting [4] is: 125 g ai/ha, scale 0 to 100 (0 no effect, 100 complete control).

`N#Cc1cccc(Oc2ncc(F)cn2)c1-n1cc(C(F)(F)F)cn1` [Compound 79, 3-[(5-fluoro-2-pyrimidinyl)oxy]-2-[4-(trifluoromethyl)-1H-pyrazol-1-yl]benzonitrile]: the “Plant response rating, Johnsongrass” value worked out at 65 with johnsongrass (16 g ai/ha); 100 in the assay on johnsongrass (31 g ai/ha); 100 in the assay with johnsongrass (62 g ai/ha); 100 in the assay on johnsongrass (125 g ai/ha); 100 in the assay with johnsongrass (250 g ai/ha). For the same compound, the “Plant response rating, Dallisgrass” value in the assay on dallisgrass (16 g ai/ha) came out at 65; in the assay with dallisgrass (31 g ai/ha), 98; in the assay on dallisgrass (62 g ai/ha), 100; with dallisgrass (125 g ai/ha), 100; in the assay on dallisgrass (250 g ai/ha), 100. The “Plant response rating, Sandbur” value was 10 with sandbur (16 g ai/ha); 15 with sandbur (31 g ai/ha); 95 in the assay on sandbur (62 g ai/ha); 98 in the assay with sandbur (125 g ai/ha); 100 in the assay with sandbur (250 g ai/ha).

For `Fc1cccc(Oc2ncc(Cl)cn2)c1-n1cc(C(F)F)nn1` [Compound 141, 5-chloro-2-[2-[4-(difluoromethyl)-1H-1,2,3-triazol-1-yl]-3-fluorophenoxy]pyrimidine], the pest or weed control at 16 g/ha in the assay on field violet (Viola arvensis, pre-emergence, 16 g ai/ha, scale 0 (no effect) to 100 (complete control), read-out: Plant response rating, Field Violet) came to 100%; in the assay on deadnettle (Lamium amplexicaule, pre-emergence, 16 g ai/ha, scale 0 (no effect) to 100 (complete control), read-out: Plant response rating, Deadnettle) it was 90%; in the assay with pigweed (Amaranthus retroflexus, pre-emergence, 16 g ai/ha, scale 0 (no effect) to 100 (complete control), read-out: Plant response rating, Pigweed), 98%; in the assay with field poppy (Papaver rhoeas, post-emergence, 16 g ai/ha, scale 0-100, read-out: Plant response rating, Field Poppy), 40%; in the assay on lambsquarters (Chenopodium album, post-emergence, 16 g ai/ha, scale 0-100, read-out: Plant response rating, Lambsquarters), 80%. In addition, the pest or weed control at 31 g/ha with field violet (Viola arvensis, pre-emergence, 31 g ai/ha, scale 0-100, read-out: Plant response rating, Field Violet) came out at 100%; in the assay on deadnettle (Lamium amplexicaule, pre-emergence, 31 g ai/ha, scale 0-100, read-out: Plant response rating, Deadnettle), 100%; in the assay on pigweed (Amaranthus retroflexus, pre-emergence, 31 g ai/ha, scale 0 (no effect) to 100 (complete control), read-out: Plant response rating, Pigweed), 100%; with field poppy (Papaver rhoeas, post-emergence, 31 g ai/ha, scale 0 to 100 (0 no effect, 100 complete control), read-out: Plant response rating, Field Poppy) it was 95%; in the assay with lambsquarters (Chenopodium album, post-emergence, 31 g ai/ha, scale 0 to 100 (0 no effect, 100 complete control), read-out: Plant response rating, Lambsquarters), 95%. The pest or weed control at 62 g/ha was 100% in the assay on field violet (Viola arvensis, pre-emergence, 62 g ai/ha, scale 0-100, read-out: Plant response rating, Field Violet); 98% in the assay with deadnettle (Lamium amplexicaule, pre-emergence, 62 g ai/ha, scale 0-100, read-out: Plant response rating, Deadnettle); 100% in the assay on pigweed (Amaranthus retroflexus, pre-emergence, 62 g ai/ha, scale 0-100, read-out: Plant response rating, Pigweed); 90% with field poppy (Papaver rhoeas, post-emergence, 62 g ai/ha, scale 0 to 100 (0 no effect, 100 complete control), read-out: Plant response rating, Field Poppy); 95% in the assay on lambsquarters (Chenopodium album, post-emergence, 62 g ai/ha, scale 0 to 100 (0 no effect, 100 complete control), read-out: Plant response rating, Lambsquarters). Moreover, the pest or weed control at 125 g/ha with field violet (Viola arvensis, pre-emergence, 125 g ai/ha, scale 0-100, read-out: Plant response rating, Field Violet) was found to be 100%; in the assay with deadnettle (Lamium amplexicaule, pre-emergence, 125 g ai/ha, scale 0-100, read-out: Plant response rating, Deadnettle) it was 100%; in the assay with pigweed (Amaranthus retroflexus, pre-emergence, 125 g ai/ha, scale 0-100, read-out: Plant response rating, Pigweed) it was 100%; with field poppy (Papaver rhoeas, post-emergence, 125 g ai/ha, scale 0 to 100 (0 no effect, 100 complete control), read-out: Plant response rating, Field Poppy), 85%; with lambsquarters (Chenopodium album, post-emergence, 125 g ai/ha, scale 0 to 100 (0 no effect, 100 complete control), read-out: Plant response rating, Lambsquarters) it was 98%.

In the case of `FCc1cccc(Oc2ncc(Cl)cn2)c1-n1cc(I)cn1` [Compound 245], the “Plant response rating, Field Violet” value in the assay with field violet (setting [1]) amounted to 55; in the assay with field violet (31 g ai/ha, scale 0-100), 95; in the assay on field violet (62 g ai/ha, scale 0-100) it was 100; with field violet (125 g ai/ha, scale 0-100) it was 100. Also, the “Plant response rating, Deadnettle” value in the assay on deadnettle (setting [1]) is listed as 0; with deadnettle (31 g ai/ha, scale 0-100), 0; with deadnettle (62 g ai/ha, scale 0-100) it was 0; in the assay with deadnettle (125 g ai/ha, scale 0-100), 15. The “Plant response rating, Pigweed” value worked out at 98 in the assay on pigweed (setting [1]); 100 with pigweed (31 g ai/ha, scale 0 (no effect) to 100 (complete control)); 100 in the assay on pigweed (125 g ai/ha, scale 0-100). Moreover, the “Plant response rating, Field Poppy” value stood at 90 in the assay on field poppy (16 g ai/ha, scale 0-100); 95 in the assay on field poppy (setting [2]); 80 in the assay with field poppy (setting [3]); 100 with field poppy (setting [4]). Also, the “Plant response rating, Lambsquarters” value was 65 in the assay on lambsquarters (16 g ai/ha, scale 0-100); 80 in the assay with lambsquarters (setting [2]); 85 in the assay with lambsquarters (setting [3]); 95 with lambsquarters (setting [4]).

On to `N#Cc1cccc(Oc2ncc(Cl)cn2)c1-n1cc(OC(F)F)cn1` [Compound 97], for which the “Plant response rating, Johnsongrass” value in the assay with johnsongrass (16 g ai/ha) was found to be 0; in the assay on johnsongrass (31 g ai/ha), 65; in the assay with johnsongrass (62 g ai/ha), 95; in the assay on johnsongrass (125 g ai/ha) it was 100; in the assay with johnsongrass (250 g ai/ha), 100. Also, the “Plant response rating, Dallisgrass” value with dallisgrass (16 g ai/ha) turned out to be 75; in the assay on dallisgrass (31 g ai/ha), 98; in the assay with dallisgrass (62 g ai/ha), 100; in the assay on dallisgrass (125 g ai/ha), 100; in the assay on dallisgrass (250 g ai/ha) it was 100. Besides, the “Plant response rating, Sandbur” value was determined as 0 with sandbur (16 g ai/ha); 10 with sandbur (31 g ai/ha); 25 in the assay on sandbur (62 g ai/ha); 100 in the assay with sandbur (125 g ai/ha); 100 in the assay on sandbur (250 g ai/ha).

Source of the values: patent publication US9695155B2, “Herbicidal substituted pyrimidinyloxy benzene compounds” (E. I. DU PONT DE NEMOURS AND COMPANY, priority 2013, dated 2017).
